AC35 data for 30 compounds are collected here from PubChem BioAssay AID624369 (Broad Institute, 2012).

The test system of the test is HEK293 LMP1 TES2 NF-kB luciferase reporter, 16 h. Briefly: inhibitors of TNFa-stimulated NF-kB luciferase reporter, dose response, selectivity assay for EBV LMP1 NF-kB inhibitor project, HEK293 LMP1 reporter cells, dry powder, set 2 (AID 624369). A general note: Reporter assays use an easily measured gene product as a stand-in for the process of interest.

Records with an inconclusive call do not appear. Calls of active or inactive are those of the source.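 Rule for the calls: active = fitted curve crosses a set inhibition level at a dose up to twice the top tested dose; inconclusive = flat curve with moderate inhibition, or an unreliable curve fit; inactive = the rest, including signal rising instead of falling.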

`O=C(C[C@H]1C[C@@H]2c3cc(NC(=O)c4ccc5c(c4)OCO5)ccc3O[C@@H]2[C@@H](CO)O1)NCc1ccc(Oc2ccccc2)cc1`: the AC35 is 24.6 µM.

As to `CC(C)NC(=O)N1Cc2cc(C(=O)NC3Cc4ccccc4C3)nc(-c3cccc(-c4cccnc4)c3)c2[C@H]1CCO`, the AC35 is 29.1 µM.

Consider `CN(C)C(=O)c1cccc(-c2cccc(-c3nc(C(=O)NCc4ccccc4)cc4c3[C@@H](CCO)N([S@](=O)C(C)(C)C)C4)c2)c1`, for which the AC35 was 10.3 µM.

Consider `N#C[C@H]1[C@H](c2ccc(C#Cc3ccccc3F)cc2)[C@@H](CO)N1C(=O)c1cccnc1`, for which the AC35 was 20.1 µM.

In the case of `CN(C)c1ccc2c(c1)[C@@H]1C[C@H](CC(=O)NCc3ccc(Oc4ccccc4)cc3)O[C@@H](CO)[C@@H]1O2`, the AC35 is 21.7 µM.

On to `C[C@@H]1CN([C@@H](C)CO)S(=O)(=O)c2ccc(C#Cc3ccncc3)cc2O[C@H]1CN(C)C(=O)Nc1ccc2c(c1)OCO2`, for which the AC35 was 21.4 µM.

Regarding `Cc1cc(C(=O)Nc2ccc3c(c2)C(=O)N(C)[C@@H]2CC[C@H](CC(=O)NCc4ccc(-c5ccccc5)cc4)O[C@@H]2CO3)no1`, the AC35 is 6.74 µM.

As for `COc1ccc(-c2cccc(-c3nc(C(=O)NCC(F)(F)F)cc4c3[C@H](CCO)N([S@@](=O)C(C)(C)C)C4)c2)cc1`, the AC35 was 28 µM.

As to `C[C@@H](NC(=O)C[C@H]1C[C@@H]2c3cc(NC(=O)c4cccnc4)ccc3O[C@@H]2[C@@H](CO)O1)c1ccccc1`, the AC35 is > 35 µM (inactive).

As for `COc1ccccc1C#Cc1ccc2c(c1)O[C@H](CN(C)Cc1cccnc1)[C@@H](C)CN([C@@H](C)CO)S2(=O)=O`, the AC35 was 26.6 µM.

Turning to `O=C(C[C@@H]1C[C@@H]2c3cc(NC(=O)c4ccc5c(c4)OCO5)ccc3O[C@@H]2[C@@H](CO)O1)NCc1ccc(Oc2ccccc2)cc1`, the AC35 is 14.2 µM.

Take `CC(=O)N(C)C[C@@H]1Oc2cc(C#Cc3ccc(F)cc3)ccc2S(=O)(=O)N([C@H](C)CO)C[C@H]1C`: the AC35 is 34 µM.

With `CN(C)C(=O)c1ccc(-c2cccc(-c3nc(C(=O)NCc4ccccc4)cc4c3[C@@H](CCO)N([S@](=O)C(C)(C)C)C4)c2)cc1`, the AC35 was 10.7 µM.

In the case of `COc1ccccc1C#Cc1cnc2c(c1)C(=O)N([C@@H](C)CO)C[C@H](C)[C@@H](CN(C)C(=O)c1ccc3c(c1)OCO3)O2`, the AC35 was 27.9 µM.

Turning to `CN1C(=O)c2cc(NC(=O)Cc3cccs3)ccc2OC[C@@H]2O[C@H](CC(=O)NCc3ccc(-c4ccccc4)cc3)CC[C@H]21`, the AC35 is 33.6 µM.

On to `O=C(C[C@@H]1CC[C@@H]2[C@H](COC[C@@H](O)CN2Cc2ccc3c(c2)OCO3)O1)Nc1ccc(-c2ccccc2)cc1`, for which the AC35 is 11.2 µM.

Regarding `CC(C)(C)[S@@](=O)N1Cc2cc(C(=O)NCCc3ccncc3)nc(-c3cccc(-c4cccnc4)c3)c2[C@H]1CCO`, the AC35 is 17.7 µM.

For `CC(C)NC(=O)N1Cc2cc(C(=O)NC3Cc4ccccc4C3)nc(-c3cccc(-c4cccnc4)c3)c2[C@@H]1CCO`, the AC35 is 18.5 µM.

Turning to `O=C(C[C@@H]1CC[C@@H]2[C@H](COC[C@@H](O)CN2Cc2ccc(Oc3ccccc3)cc2)O1)N1CCc2ccccc2C1`, the AC35 was 8.89 µM.

In the case of `N#C[C@H]1[C@@H](c2ccc(-c3cccnc3)cc2)[C@@H](CO)N1C(=O)Nc1ccc(F)cc1`, the AC35 is 16.9 µM.

Consider `O=C(C[C@@H]1C[C@@H]2c3cc(NS(=O)(=O)c4ccc(F)cc4)ccc3O[C@@H]2[C@@H](CO)O1)NCc1ccc(Oc2ccccc2)cc1`, for which the AC35 was 16.7 µM.

Take `N#C[C@H]1N[C@H](CO)[C@H]1c1ccc(C#Cc2ccccc2F)cc1`: the AC35 was less than 0.26 µM.

On to `COc1ccc(S(=O)(=O)N(C)C[C@H]2Oc3ncc(/C=C/c4ccccc4)cc3C(=O)N([C@H](C)CO)C[C@@H]2C)cc1`, for which the AC35 was 21.9 µM.

Consider `CC(C)(C)[S@@](=O)N1Cc2cc(C(=O)NCc3ccccc3F)nc(-c3cccc(-c4cccnc4)c3)c2[C@H]1CCO`, for which the AC35 was 12.7 µM.

Take `CC(C)(C)[S@@](=O)N1Cc2cc(C(=O)NCc3ccccn3)nc(-c3cccc(-c4ccccc4F)c3)c2[C@H]1CCO`: the AC35 was 26.1 µM.

Turning to `Cc1cc(C(=O)Nc2ccc3c(c2)C(=O)N(C)[C@H]2CC[C@@H](CC(=O)NCc4ccc(-c5ccccc5)cc4)O[C@H]2CO3)no1`, the AC35 is 13.5 µM.

For the compound `O=C(C[C@@H]1CC[C@@H]2[C@H](COC[C@H](O)CN2Cc2ccc3c(c2)OCO3)O1)Nc1ccc(-c2ccccc2)cc1`, the AC35 is 10.7 µM.

For the compound `N#C[C@@H]1[C@H](c2ccc(C#Cc3ccccc3F)cc2)[C@@H](CO)N1C(=O)c1cccnc1`, the AC35 is 2.04 µM.

In the case of `O=C(C[C@@H]1C[C@H]2c3cc(NS(=O)(=O)c4ccc(F)cc4)ccc3O[C@H]2[C@@H](CO)O1)NCc1ccc(Oc2ccccc2)cc1`, the AC35 was 19.5 µM.

On to `COc1ccccc1C#Cc1cnc2c(c1)C(=O)N([C@H](C)CO)C[C@H](C)[C@@H](CN(C)C(=O)c1ccc3c(c1)OCO3)O2`, for which the AC35 was 34.3 µM.
